From ChEMBL document CHEMBL4507274 (2021)

What was measured:
[1] = system: Mast/stem cell growth factor receptor Kit (Homo sapiens), P10721 [A829P]; settings: Compound concentration 100.0 nM
[2] = system: Phosphatidylinositol 4,5-bisphosphate 3-kinase catalytic subunit alpha isoform (Homo sapiens), P42336 [E545A]; settings: Compound concentration 100.0 nM
[3] = target: Serine/threonine-protein kinase PRP4 homolog (Homo sapiens) (UniProt Q13523); settings: Compound concentration 100.0 nM
[4] = target: Serine/threonine-protein kinase haspin (Homo sapiens) (UniProt Q8TF76); settings: Compound concentration 100.0 nM
[5] = target: Tyrosine-protein kinase ABL2 (Homo sapiens) (UniProt P42684); settings: Compound concentration 100.0 nM
[6] = target: Serine/threonine-protein kinase 38 (Homo sapiens) (UniProt Q15208); settings: Compound concentration 100.0 nM
[7] = target: Fibroblast growth factor receptor 3 (Homo sapiens) (UniProt P22607); settings: Compound concentration 100.0 nM
[8] = target: Casein kinase II subunit alpha' (Homo sapiens) (UniProt P19784); settings: Compound concentration 100.0 nM
[9] = target: Mitogen-activated protein kinase 7 (Homo sapiens) (UniProt Q13164); settings: Compound concentration 100.0 nM
[10] = target: Mitogen-activated protein kinase kinase kinase kinase 2 (Homo sapiens) (UniProt Q12851); settings: Compound concentration 100.0 nM
[11] = target: Cyclin-dependent kinase-like 3 (Homo sapiens) (UniProt Q8IVW4); settings: Compound concentration 100.0 nM
[12] = target: Tyrosine-protein kinase HCK (Homo sapiens) (UniProt P08631); settings: Compound concentration 100.0 nM
[13] = target: Ribosomal protein S6 kinase beta-1 (Homo sapiens) (UniProt P23443); settings: Compound concentration 100.0 nM
[14] = target: Tyrosine-protein kinase Fgr (Homo sapiens) (UniProt P09769); settings: Compound concentration 100.0 nM
[15] = target: Sodium-dependent serotonin transporter (Homo sapiens) (UniProt P31645); settings: Compound concentration 10.0 uM
[16] = target: Casein kinase I isoform gamma-1 (Homo sapiens) (UniProt Q9HCP0); settings: Compound concentration 100.0 nM
[17] = target: Ephrin type-B receptor 3 (Homo sapiens) (UniProt P54753); settings: Compound concentration 100.0 nM
[18] = system: Tyrosine-protein kinase ABL1 (Homo sapiens), P00519 [Q252H]; settings: Compound concentration 100.0 nM
[19] = target: Mitogen-activated protein kinase kinase kinase 19 (Homo sapiens) (UniProt Q56UN5); settings: Compound concentration 100.0 nM
[20] = system: Receptor-type tyrosine-protein kinase FLT3 (Homo sapiens), P36888 [UNDEFINED MUTATION]; settings: Compound concentration 100.0 nM
[21] = target: Focal adhesion kinase 1 (Homo sapiens) (UniProt Q05397); settings: Compound concentration 100.0 nM
[22] = target: Cyclin-dependent kinase 4 (Homo sapiens) (UniProt P11802); settings: Compound concentration 100.0 nM
[23] = target: Fibroblast growth factor receptor 1 (Homo sapiens) (UniProt P11362); settings: Compound concentration 100.0 nM
[24] = target: Serine/threonine-protein kinase TNNI3K (Homo sapiens) (UniProt Q59H18); settings: Compound concentration 100.0 nM
[25] = target: Homeodomain-interacting protein kinase 1 (Homo sapiens) (UniProt Q86Z02); settings: Compound concentration 100.0 nM
[26] = target: Serine/threonine-protein kinase Nek3 (Homo sapiens) (UniProt P51956); settings: Compound concentration 100.0 nM
[27] = target: Mitogen-activated protein kinase kinase kinase 15 (Homo sapiens) (UniProt Q6ZN16); settings: Compound concentration 100.0 nM
[28] = target: Calcium/calmodulin-dependent protein kinase type II subunit alpha (Homo sapiens) (UniProt Q9UQM7); settings: Compound concentration 100.0 nM
[29] = target: Serine/threonine-protein kinase B-raf (Homo sapiens) (UniProt P15056); settings: Compound concentration 100.0 nM
[30] = target: Ribosomal protein S6 kinase alpha-2 (Homo sapiens) (UniProt Q15349); settings: Compound concentration 100.0 nM
[31] = target: Rho-associated protein kinase 1 (Homo sapiens) (UniProt Q13464); settings: Compound concentration 100.0 nM
[32] = target: Phosphatidylinositol 4-phosphate 5-kinase type-1 gamma (Homo sapiens) (UniProt O60331); settings: Compound concentration 100.0 nM
[33] = target: MAP kinase-interacting serine/threonine-protein kinase 1 (Homo sapiens) (UniProt Q9BUB5); settings: Compound concentration 100.0 nM
[34] = target: Serine/threonine-protein kinase 25 (Homo sapiens) (UniProt O00506); settings: Compound concentration 100.0 nM
[35] = system: Mast/stem cell growth factor receptor Kit (Homo sapiens), P10721 [V559D,V654A]; settings: Compound concentration 100.0 nM
[36] = target: Ephrin type-B receptor 2 (Homo sapiens) (UniProt P29323); settings: Compound concentration 100.0 nM
[37] = target: Vascular endothelial growth factor receptor 3 (Homo sapiens) (UniProt P35916); settings: Compound concentration 100.0 nM
[38] = target: GABA-A receptor; anion channel (Rattus norvegicus) (UniProt O09028+P15431+P18506+P18508+P19969+P20236+P23574+P23576+P28471+P28473+P30191+P62813+P63079+P63138+Q91ZM7+Q9ES14); settings: Compound concentration 10.0 uM
[39] = target: Delta-type opioid receptor (Homo sapiens) (UniProt P41143); settings: Compound concentration 10.0 uM
[40] = target: Rhodopsin kinase GRK1 (Homo sapiens) (UniProt Q15835); settings: Compound concentration 100.0 nM
Chain of Rhodopsin kinase GRK1 (Homo sapiens) (Q15835 whole entry): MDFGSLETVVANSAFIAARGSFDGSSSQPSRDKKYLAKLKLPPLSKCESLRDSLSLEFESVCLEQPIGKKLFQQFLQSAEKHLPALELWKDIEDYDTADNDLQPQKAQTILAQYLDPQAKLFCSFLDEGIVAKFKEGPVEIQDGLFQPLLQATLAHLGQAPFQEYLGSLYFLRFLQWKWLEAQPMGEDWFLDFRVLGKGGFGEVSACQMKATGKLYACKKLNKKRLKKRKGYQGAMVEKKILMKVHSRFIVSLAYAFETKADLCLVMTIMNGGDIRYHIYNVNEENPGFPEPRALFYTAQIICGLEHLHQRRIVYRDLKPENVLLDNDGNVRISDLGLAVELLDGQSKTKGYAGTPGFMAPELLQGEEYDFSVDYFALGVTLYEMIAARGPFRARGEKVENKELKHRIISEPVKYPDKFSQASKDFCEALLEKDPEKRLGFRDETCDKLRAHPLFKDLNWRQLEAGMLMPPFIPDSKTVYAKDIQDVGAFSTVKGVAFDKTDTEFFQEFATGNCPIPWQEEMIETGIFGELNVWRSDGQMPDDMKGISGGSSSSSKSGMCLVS

Chain of Mitogen-activated protein kinase kinase kinase 15 (Homo sapiens) (Q6ZN16 whole entry): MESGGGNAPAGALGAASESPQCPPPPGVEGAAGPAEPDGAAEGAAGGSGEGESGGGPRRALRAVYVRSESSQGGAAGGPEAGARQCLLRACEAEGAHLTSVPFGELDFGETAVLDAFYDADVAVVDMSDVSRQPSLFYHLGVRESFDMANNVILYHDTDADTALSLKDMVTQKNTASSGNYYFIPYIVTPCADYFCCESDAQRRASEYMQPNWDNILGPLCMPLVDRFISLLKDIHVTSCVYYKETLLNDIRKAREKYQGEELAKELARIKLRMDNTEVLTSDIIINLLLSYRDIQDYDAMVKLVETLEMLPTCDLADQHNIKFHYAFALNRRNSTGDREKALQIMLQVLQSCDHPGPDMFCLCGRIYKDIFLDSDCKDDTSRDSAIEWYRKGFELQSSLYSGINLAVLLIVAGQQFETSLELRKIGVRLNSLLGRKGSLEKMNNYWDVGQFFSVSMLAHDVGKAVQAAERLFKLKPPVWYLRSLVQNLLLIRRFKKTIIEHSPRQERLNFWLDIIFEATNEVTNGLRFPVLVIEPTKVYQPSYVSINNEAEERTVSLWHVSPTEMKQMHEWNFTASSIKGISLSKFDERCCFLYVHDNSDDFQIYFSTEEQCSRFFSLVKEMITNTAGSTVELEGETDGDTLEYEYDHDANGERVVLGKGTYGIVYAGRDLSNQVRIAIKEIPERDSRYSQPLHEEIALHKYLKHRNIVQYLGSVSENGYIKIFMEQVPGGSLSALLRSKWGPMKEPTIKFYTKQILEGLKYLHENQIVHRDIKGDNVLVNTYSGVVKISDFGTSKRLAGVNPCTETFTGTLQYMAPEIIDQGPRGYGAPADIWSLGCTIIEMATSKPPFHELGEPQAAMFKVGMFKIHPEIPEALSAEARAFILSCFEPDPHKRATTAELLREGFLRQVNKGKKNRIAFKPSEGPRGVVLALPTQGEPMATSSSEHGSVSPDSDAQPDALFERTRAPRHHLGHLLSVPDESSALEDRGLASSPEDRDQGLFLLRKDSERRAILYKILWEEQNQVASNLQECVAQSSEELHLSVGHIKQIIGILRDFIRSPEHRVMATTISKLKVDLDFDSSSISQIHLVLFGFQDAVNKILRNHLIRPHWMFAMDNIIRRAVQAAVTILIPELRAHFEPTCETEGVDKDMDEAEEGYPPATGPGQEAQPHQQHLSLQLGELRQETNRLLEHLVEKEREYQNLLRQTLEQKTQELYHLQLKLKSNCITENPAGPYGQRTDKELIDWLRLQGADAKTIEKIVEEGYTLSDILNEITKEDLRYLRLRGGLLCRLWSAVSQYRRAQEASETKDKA
Chain of Ribosomal protein S6 kinase beta-1 (Homo sapiens) (P23443 whole entry, looked up): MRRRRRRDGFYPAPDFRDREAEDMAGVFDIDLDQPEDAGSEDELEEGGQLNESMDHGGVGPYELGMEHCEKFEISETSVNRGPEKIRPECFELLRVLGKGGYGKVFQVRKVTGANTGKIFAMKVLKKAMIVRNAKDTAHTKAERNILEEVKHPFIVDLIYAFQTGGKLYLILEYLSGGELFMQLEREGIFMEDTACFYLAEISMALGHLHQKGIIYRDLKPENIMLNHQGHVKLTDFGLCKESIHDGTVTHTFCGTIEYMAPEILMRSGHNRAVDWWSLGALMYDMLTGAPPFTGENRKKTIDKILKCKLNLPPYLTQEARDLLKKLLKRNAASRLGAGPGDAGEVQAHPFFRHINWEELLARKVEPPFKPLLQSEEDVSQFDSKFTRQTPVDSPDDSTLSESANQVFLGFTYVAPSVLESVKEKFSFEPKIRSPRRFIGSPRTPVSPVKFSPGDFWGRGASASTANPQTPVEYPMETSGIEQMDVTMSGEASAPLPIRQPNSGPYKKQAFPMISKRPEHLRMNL
Chain of Serine/threonine-protein kinase 25 (Homo sapiens) (O00506 whole entry, looked up): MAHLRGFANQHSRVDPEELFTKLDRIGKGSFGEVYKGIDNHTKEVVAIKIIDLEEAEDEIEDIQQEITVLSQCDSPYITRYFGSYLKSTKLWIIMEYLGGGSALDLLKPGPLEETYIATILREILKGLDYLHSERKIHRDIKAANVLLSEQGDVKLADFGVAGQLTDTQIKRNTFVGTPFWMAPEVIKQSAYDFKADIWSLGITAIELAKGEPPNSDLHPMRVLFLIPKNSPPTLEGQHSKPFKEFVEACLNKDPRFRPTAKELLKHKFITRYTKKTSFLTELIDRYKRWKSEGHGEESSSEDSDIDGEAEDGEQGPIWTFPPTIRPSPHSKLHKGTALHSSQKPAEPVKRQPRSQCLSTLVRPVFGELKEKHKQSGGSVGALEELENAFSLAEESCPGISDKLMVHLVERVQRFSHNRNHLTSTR
Chain of Rho-associated protein kinase 1 (Homo sapiens) (Q13464 2-1354 limits assumed): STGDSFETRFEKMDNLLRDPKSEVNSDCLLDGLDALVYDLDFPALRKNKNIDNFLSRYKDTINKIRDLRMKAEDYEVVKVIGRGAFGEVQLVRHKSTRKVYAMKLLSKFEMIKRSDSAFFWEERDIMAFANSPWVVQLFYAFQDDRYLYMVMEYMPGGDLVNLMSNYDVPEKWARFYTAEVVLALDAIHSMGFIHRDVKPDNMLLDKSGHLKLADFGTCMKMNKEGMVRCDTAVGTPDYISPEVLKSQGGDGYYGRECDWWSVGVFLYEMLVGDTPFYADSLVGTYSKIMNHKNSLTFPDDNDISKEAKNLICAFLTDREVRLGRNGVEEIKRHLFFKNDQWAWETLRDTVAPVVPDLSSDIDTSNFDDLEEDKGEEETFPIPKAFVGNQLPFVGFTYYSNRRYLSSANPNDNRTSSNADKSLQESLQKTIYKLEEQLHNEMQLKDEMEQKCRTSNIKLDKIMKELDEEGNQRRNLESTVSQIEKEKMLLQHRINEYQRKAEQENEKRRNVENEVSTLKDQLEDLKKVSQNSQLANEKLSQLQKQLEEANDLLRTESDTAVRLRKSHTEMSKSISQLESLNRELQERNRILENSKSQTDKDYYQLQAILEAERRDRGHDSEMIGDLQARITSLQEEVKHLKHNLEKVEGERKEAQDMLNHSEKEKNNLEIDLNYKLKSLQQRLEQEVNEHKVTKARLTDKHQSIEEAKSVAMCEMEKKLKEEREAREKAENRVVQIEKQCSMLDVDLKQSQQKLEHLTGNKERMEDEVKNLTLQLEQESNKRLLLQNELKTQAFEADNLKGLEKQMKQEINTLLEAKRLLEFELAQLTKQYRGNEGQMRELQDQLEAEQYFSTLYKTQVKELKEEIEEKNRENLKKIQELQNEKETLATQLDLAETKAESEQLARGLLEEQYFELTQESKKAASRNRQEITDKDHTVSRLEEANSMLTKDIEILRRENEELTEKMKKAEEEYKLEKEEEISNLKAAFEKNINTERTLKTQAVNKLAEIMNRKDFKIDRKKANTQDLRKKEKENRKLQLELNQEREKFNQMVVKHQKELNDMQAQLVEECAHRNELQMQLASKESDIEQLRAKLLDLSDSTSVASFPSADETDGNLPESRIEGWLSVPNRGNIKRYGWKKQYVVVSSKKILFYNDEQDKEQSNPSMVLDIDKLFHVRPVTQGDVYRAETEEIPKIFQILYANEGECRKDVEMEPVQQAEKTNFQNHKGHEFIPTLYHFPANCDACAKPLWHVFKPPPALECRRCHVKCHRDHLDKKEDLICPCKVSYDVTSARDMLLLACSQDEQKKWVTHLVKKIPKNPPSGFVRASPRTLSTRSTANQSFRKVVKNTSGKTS
Chain of Delta-type opioid receptor (Homo sapiens) (P41143 whole entry): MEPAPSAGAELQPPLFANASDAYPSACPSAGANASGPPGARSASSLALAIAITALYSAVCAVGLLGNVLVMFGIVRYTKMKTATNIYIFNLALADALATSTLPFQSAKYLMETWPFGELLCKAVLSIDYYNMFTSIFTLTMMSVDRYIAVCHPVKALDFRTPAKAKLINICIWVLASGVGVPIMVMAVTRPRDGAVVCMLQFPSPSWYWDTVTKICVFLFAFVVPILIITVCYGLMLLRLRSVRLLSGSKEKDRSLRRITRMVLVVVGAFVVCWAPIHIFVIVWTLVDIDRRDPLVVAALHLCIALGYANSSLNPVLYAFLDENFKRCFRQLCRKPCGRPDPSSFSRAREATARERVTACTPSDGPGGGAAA
Chain of Serine/threonine-protein kinase Nek3 (Homo sapiens) (P51956 whole entry): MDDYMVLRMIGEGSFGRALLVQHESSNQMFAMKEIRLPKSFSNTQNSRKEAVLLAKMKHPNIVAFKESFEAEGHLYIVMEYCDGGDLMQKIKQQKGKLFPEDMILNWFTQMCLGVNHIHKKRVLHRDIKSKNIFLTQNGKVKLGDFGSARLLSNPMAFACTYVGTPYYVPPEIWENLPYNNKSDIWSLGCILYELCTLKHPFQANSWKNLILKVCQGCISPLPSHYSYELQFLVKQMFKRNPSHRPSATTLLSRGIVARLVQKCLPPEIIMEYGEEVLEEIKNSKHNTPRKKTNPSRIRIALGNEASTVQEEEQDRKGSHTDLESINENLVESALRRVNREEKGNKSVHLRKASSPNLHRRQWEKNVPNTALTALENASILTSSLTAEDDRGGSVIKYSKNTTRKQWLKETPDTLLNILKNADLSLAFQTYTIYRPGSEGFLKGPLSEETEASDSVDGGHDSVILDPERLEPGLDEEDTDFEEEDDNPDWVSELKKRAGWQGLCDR

Structure (SMILES) | residual activity [1] [%] | residual activity [2] [%] | residual activity [3] [%] | residual activity [4] [%] | residual activity [5] [%] | residual activity [6] [%] | residual activity [7] [%] | residual activity [8] [%] | residual activity [9] [%] | residual activity [10] [%] | residual activity [11] [%] | residual activity [12] [%] | residual activity [13] [%] | residual activity [14] [%] | inhibition [15] [%] | residual activity [16] [%] | residual activity [17] [%] | residual activity [18] [%] | residual activity [19] [%] | residual activity [20] [%] | other results
Cn1cc(Cl)c2c(Oc3c(F)cc(Nc4cc(Cl)nc(N)n4)cc3F)ccnc21 [BAY-4900] | 63 | 88 | 81 | 74 | 99 | 87 | 99 | 89 | 100 | 81 | 96 | 100 | 84 | 100 | -5.34 | 100 | 100 | 78 | 75 | 100 | residual activity [21]: 100%; residual activity [22]: 85%; residual activity [23]: 100%; residual activity [24]: 78%; residual activity [25]: 100%; residual activity [26]: 91%; residual activity [27]: 84%; residual activity [28]: 82%; residual activity [29]: 100%; residual activity [30]: 95%; residual activity [31]: 76%; residual activity [32]: 93%; residual activity [33]: 100%; residual activity [34]: 100%; residual activity [35]: 90%; residual activity [36]: 100%; residual activity [37]: 96%; inhibition [38]: 1.6%; inhibition [39]: -5.39%; residual activity [40]: 92%
Cc1c[nH]c2nccc(Oc3c(F)cc(Nc4cc(Cl)nc(N)n4)cc3F)c12 [BAY-549] | 70 | 88 | 89 | 61 | 86 | 89 | 100 | 86 | 82 | 69 | 100 | 100 | 85 | 100 | 2.1 | 100 | 100 | 85 | 74 | 97 | residual activity [21]: 100%; residual activity [22]: 67%; residual activity [23]: 100%; residual activity [24]: 98%; residual activity [25]: 100%; residual activity [26]: 75%; residual activity [27]: 94%; residual activity [28]: 70%; residual activity [29]: 98%; residual activity [30]: 82%; residual activity [31]: 0.6%; residual activity [32]: 78%; residual activity [33]: 100%; residual activity [34]: 100%; residual activity [35]: 94%; residual activity [36]: 99%; residual activity [37]: 98%; inhibition [38]: 4.87%; inhibition [39]: 7.96%; residual activity [40]: 82%
